The experiment concerns HSV-1 gE/gI. Nature of the experiment: Total anti-HSV-1 gE/gI cross-reactive IgG antibodies by ELISA in serum of immunised mice. To be noted: 0.1 ug LNP/SAM i.m. days 0 & 28, adjuvanted with 2.22 ug of STING agonist at day+0, +1 or +3; 21PII (day 49); FIG. 3. The format is in vivo, CB6F1 mice. The procedure: Female CB6F1 inbred mice aged 6-8 weeks old were randomly assigned to study groups (n=8 gr1-10 (groups 1-10) and n=4/gr11 (group 11)) and kept under pathogen-free conditions. Mice ([…]) were intramuscularly (i.m.) immunized, in the gastrocnemius muscle, on days 0 and 28 with 0.1ug of LNP-formulated SAM (25 uL volume) comprising a heterodimer of the HSV-2 gE and gI proteins (LNP/SAM-gE_P317R/gI) and were injected, in the same muscle, with different doses of STING agonist (0.25, 0.74 or 2.22ug) either at the same time (day+0) or 1 or 3 days after each of the two SAM immunizations. […]
Quantification of the total HSV-1 gE/gI-specific IgG antibodies was performed using indirect ELISA. […]
The plates were then washed four times with washing buffer and 2 times with deionised water and incubated for 15 min at RT (room temperature) with 100 uL/well of a solution of 75% single-component TMB peroxidase ELISA substrate diluted in sodium citrate 0.1M pH5.5 buffer. Enzymatic color development was stopped with 100 uL of […] sulfuric acid 1M (H2SO4) per well and the plates were read at an absorbance of 450/620 nm using an ELISA reader. Optical densities (OD) were captured and analysed. […] Antibody titer in the samples was calculated by interpolation of the standard curve. […]

As to `CCn1nc(C)cc1C(=O)/N=c1\[nH]c2cc(C(N)=O)cc(OC)c2n1C/C=C/Cn1/c(=N/C(=O)c2cc(C)nn2CC)[nH]c2cc(C(N)=O)cc(OCCCOP(=O)(O)O)c21` [STING, 3-(((E)-6-carbamoyl-3-((E)-4-((E)-5-carbamoyl-2-((1-ethyl-3-methyl-1H-pyrazole-5-carbonyl)imino)-7-methoxy-2,3-dihydro-1H-benzo[d]imidazol-1-yl)but-2-en-1-yl)-2-((1-ethyl-3-methyl-1H-pyrazole-5-carbonyl)imino)-2,3-dihydro-1H-benzo[d]imidazol-4-yl)oxy)propyl], the “GM titers of anti-HSV-1 gE/gI cross reactive IgG antibody relative to unadjuvanted control” value is given as “increased GM titers of anti-HSV-1 gE/gI cross reactive IgG antibody in all groups”.

Source of the values: US20240285755A1, “Adjuvants” (GlaxoSmithKline Biologicals SA, priority 2021, published 2024).
